In general, EC50 refers to the concentration giving half of the maximal effect. Broadly, the CC50 is the concentration that lowers cell viability or growth by half. In general, IC50 refers to the concentration that gives 50% inhibition. Broadly, the AC50 is the concentration at which the activity in the assay is half-maximal.

The source made the active and inactive calls. A value given as a limit tells only on which side of the number the result lay.

The subject of assay [1] is BJ. As to the kind of experiment: cells. The following applies: Homo sapiens. Format: functional, cell-based.
Assay [2] can be described thus: cytotoxicity toward DRD oncogenic fibroblasts, dose response, cell-based, non-viral oncogenic, luminescence (AID 1934). It counts as functional. The following applies: Homo sapiens.
Assay [3] concerns BJ. In words: cytotoxicity toward BJ-TERT fibroblasts, dose response, cell-based, RAS-independent, luminescence (AID 1933). Format: functional. The following applies: Homo sapiens.
The nature of assay [4]: HEp-2 cell cytotoxicity, dose response, cytotoxicity control for RSV inhibitor project, HTS (AID 2410). The following applies: human respiratory syncytial virus. It counts as functional.
In assay [5] the target is Induced myeloid leukemia cell differentiation protein Mcl-1 (Homo sapiens, UniProt Q07820). It counts as functional.
Assay [6] in a line: inhibitors of intracellular T. cruzi replication, confirmation, NIH3T3 host cells, beta-gal luminescence (AID 2044).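 Note: intracellular parasites grown in NIH/3T3 mouse fibroblasts as host cells; luminescent beta-galactosidase reporter signal from transgenic T. cruzi replicating inside host cells; inhibitors lower the luminescence signal.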 It counts as functional, cell-based.
The nature of assay [7]: cytotoxicity toward NIH3T3 fibroblasts, dose response, counter-screen, cell-based, ATP luminescence, mouse fibroblasts (AID 2010).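 Note: cells exposed to compound for about 90 hours before reading.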 It counts as functional. Background: The purpose of a counterscreen is to sort out artefacts and off-target activity.
The target in assay [8] is T1, Cytochrome P450 1A2 (Homo sapiens, UniProt P05177).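 Note: PubChem cytochrome P450 panel assay, CYP1A2 panel member.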
T1 sequence (P05177 whole entry): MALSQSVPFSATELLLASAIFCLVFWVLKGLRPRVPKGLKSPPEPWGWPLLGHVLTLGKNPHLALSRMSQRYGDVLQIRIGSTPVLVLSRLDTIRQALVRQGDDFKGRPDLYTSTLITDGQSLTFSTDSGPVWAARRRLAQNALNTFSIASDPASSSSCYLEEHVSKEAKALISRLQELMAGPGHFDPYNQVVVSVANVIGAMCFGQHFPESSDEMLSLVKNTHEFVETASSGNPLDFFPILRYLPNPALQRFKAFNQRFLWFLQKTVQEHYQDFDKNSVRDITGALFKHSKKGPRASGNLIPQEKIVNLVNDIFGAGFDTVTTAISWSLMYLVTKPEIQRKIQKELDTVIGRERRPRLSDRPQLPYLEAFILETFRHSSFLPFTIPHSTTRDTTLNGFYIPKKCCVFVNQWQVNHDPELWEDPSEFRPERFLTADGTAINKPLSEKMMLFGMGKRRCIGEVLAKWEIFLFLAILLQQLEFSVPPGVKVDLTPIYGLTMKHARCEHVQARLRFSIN

Assay [9] concerns the target T2, RNA-binding protein pos-1 (Caenorhabditis elegans, UniProt G5EF15).
T2 sequence (G5EF15 whole entry): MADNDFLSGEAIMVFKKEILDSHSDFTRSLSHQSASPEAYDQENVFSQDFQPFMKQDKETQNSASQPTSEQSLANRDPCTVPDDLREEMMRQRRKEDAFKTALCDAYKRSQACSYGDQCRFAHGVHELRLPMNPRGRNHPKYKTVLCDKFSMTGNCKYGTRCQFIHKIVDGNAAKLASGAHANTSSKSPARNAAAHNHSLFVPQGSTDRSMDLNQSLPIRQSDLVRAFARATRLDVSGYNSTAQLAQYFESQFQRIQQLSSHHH
As to the kind of experiment: inhibitors of POS-1/mex-3 RNA binding, dose response, biochemical, fluorescence polarization (AID 1964).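 Note: purified POS-1 fused to maltose binding protein made in E. coli; potency of compounds blocking POS-1 binding to fluorescent RNA.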 For orientation: Polarisation of emitted light reports the rotation of a fluorescent probe.

The target of assay [10] is T3, Zinc finger protein mex-5 (Caenorhabditis elegans, UniProt Q9XUB2).
T3 sequence (Q9XUB2 whole entry): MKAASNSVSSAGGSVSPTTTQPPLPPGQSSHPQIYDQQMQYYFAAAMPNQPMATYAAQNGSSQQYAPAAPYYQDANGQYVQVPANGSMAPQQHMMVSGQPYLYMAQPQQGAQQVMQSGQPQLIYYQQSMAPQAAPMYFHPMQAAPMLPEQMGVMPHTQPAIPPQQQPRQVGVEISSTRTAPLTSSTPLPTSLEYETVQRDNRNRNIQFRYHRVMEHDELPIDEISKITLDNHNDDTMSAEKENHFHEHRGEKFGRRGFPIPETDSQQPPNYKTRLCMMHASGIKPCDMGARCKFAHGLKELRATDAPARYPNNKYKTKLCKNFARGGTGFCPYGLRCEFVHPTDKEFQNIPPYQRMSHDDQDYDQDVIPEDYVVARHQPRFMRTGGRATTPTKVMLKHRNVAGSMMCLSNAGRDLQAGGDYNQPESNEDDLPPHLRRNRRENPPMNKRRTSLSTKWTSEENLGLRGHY
In words: MEX-5/TCR-2 RNA interaction inhibitors, dose response, biochemical, C. elegans, fluorescence polarization (AID 1960).

The nature of assay [11]: growth suppression of PTEN-null colon cells, dose response, cell-based, HCT116 PTEN knockout (AID 1047).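 Note: HCT116 colon tumor cells with PTEN knocked out; cells exposed to compound for 60 hours before readout; potency for loss of cell viability measured by luminescence.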 It counts as functional.
Assay [12] in a line: growth suppression of beta-catenin-knockout colon cells, dose response, cell-based, HCT116, human colon tumor (AID 1045).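 Note: HCT116 colon tumor cells with beta catenin knocked out; cells exposed to compound for 60 hours.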 Format: functional.
Assay [13] has as its target Cytochrome P450 3A4 (Homo sapiens, UniProt P08684).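 Note: CYP3A4 tested as one member of a cytochrome P450 panel screen.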
Assay [14] concerns the target Cytochrome P450 2C19 (Homo sapiens, UniProt P33261). As to the kind of experiment: Cytochrome panel assay with activity outcomes. Panel member name: p450-cyp2c19 Compounds with AC50 equal or less than 10 uM are considered active. Format: functional. The following applies: read-out: AC50.

Sequence of Induced myeloid leukemia cell differentiation protein Mcl-1 (Q07820 whole entry): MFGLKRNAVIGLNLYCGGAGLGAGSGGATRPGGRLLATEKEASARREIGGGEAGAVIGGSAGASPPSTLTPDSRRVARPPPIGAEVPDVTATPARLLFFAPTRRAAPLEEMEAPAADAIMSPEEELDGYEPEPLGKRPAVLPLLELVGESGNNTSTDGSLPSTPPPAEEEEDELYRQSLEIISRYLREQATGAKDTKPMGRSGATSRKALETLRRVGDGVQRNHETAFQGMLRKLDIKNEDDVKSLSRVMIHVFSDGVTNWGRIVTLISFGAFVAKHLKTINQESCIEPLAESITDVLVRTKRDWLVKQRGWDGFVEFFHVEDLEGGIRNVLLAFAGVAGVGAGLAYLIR
Sequence of Cytochrome P450 3A4 (P08684 whole entry): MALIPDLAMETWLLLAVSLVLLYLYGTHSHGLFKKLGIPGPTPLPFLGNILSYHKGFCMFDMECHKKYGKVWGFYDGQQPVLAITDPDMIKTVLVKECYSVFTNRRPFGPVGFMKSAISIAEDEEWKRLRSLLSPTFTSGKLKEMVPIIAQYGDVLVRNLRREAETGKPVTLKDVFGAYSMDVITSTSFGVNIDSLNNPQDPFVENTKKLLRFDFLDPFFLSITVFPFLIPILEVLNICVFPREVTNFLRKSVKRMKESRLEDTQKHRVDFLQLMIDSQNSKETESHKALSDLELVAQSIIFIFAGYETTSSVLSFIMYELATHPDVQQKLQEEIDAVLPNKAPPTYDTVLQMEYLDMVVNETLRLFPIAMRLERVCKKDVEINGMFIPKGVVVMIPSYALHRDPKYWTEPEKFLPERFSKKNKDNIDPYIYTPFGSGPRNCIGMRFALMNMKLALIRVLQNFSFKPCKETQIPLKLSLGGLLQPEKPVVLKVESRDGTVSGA
Sequence of Cytochrome P450 2C19 (P33261 whole entry): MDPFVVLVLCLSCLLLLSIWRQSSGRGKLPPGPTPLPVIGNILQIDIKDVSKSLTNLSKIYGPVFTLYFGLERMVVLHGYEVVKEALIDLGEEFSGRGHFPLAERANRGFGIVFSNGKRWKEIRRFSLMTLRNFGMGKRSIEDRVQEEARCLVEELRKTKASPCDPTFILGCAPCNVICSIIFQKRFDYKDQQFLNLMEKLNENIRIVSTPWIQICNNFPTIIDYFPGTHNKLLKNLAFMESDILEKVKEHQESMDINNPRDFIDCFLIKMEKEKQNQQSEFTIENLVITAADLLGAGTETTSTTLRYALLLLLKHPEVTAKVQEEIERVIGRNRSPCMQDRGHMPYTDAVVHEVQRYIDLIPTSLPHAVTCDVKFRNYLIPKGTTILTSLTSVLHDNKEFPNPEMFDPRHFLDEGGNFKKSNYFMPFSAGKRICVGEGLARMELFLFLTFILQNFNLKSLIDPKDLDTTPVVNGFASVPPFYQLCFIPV

As for `CCc1ccc(/C=C2/SC(=S)N(CCC(=O)NCCCN3CCOCC3)C2=O)cc1`, the results for the EC50 in assay [1], in assay [2] and in assay [3] were 14.5 µM (active), > 38 µM (not active) and 1.32 µM (active), respectively.
In the case of `COC(=O)c1ccc(Cn2cnc3c(sc4nc(N5CCOCC5)c5c(c43)CCCC5)c2=O)o1`, the CC50 in [4] is > 50 µM (active).
For `CC(=O)Oc1ccc(NC(=O)CSc2ccccc2)cc1`, in assay [5], the IC50 was < 0.4 µM (not active).
In the case of `COCCOC(=O)C1=C(C)N(Cc2ccccc2)C(=O)NC1c1ccc(OC)cc1` (stereo not drawn), the CC50 in assay [4] was 23.2 µM (active).
`O=C(NC1CCCCC1)C(c1ccncc1)N(Cc1ccccc1)C(=O)c1ccc(-c2ccccc2)[nH]1` (stereo not drawn): in assay [4], the CC50 is 7.92 µM (active). Further, the values for the EC50 in assay [6] and in assay [7] were 413 nM (active) and > 60 µM (not active), respectively.
Regarding `N#Cc1c(NC(=O)CSC2=NCCS2)sc2c1CCCC2`, in assay [4], the CC50 is 22.5 µM (active).
As to `COc1cc(C2C(C#N)=C(N)OC3=C2C(=O)CCC3)c([N+](=O)[O-])cc1OC` (stereo not drawn), in assay [8], the half-maximal activity concentration (AC50) was 31.6 µM (inconclusive). Further, the IC50 in assay [5] was 3.9 µM (active). Further, the EC50 was 15.8 µM (active) in [9] and 13.8 µM (active) in assay [10].
For `Cc1ccc(S(=O)(=O)c2nc(-c3ccc(F)cc3)oc2SCC(=O)NCC2CCCO2)cc1` (stereo not drawn), the EC50 in assay [11] was 83.1 µM (active); in assay [12], 35.3 µM (active).
Turning to `O=[N+]([O-])c1ccc(N=Nc2c(O)[nH]c3ccc(F)cc23)cc1`, the CC50 in [4] is 26.1 µM (active).
Take `Cc1cccc(N2CCN(C(=O)c3cn(C)c(=O)c4c3c3ccccc3n4C)CC2)c1C`: the EC50 in [11] was 19.1 µM (active); in assay [12], 18.6 µM (active).
As to `Cc1ccc(S(=O)(=O)N2CCC(Oc3cccc(C(F)(F)F)c3)CC2)cc1`, in assay [4], the CC50 was 16.5 µM (active).
Regarding `CC(C)(C)c1ccc(C2CC2C(=O)N/N=C\c2cc3ccccc3nc2Cl)cc1` (stereo not drawn), the results for the AC50 in assay [8], in assay [13] and in [14] were 28.2 µM (inconclusive), 15.8 µM (inconclusive) and 11.2 µM (inconclusive), respectively. In [4], the CC50 is 20.1 µM (active).
Regarding `Cc1cc(C(=O)N/N=C/c2ccc(O)c([N+](=O)[O-])c2)c(C)n1-c1ccc(F)cc1`, the IC50 in [5] was 3.74 µM (active).
On the same count and under the same terms, the same measure for `CC(=O)Nc1sc(N/N=C\c2ccc(O)cc2)nc1-c1cccs1`: 2.4 µM (active).
Take `COc1ccc(/C=C/C(=O)Oc2ccc(/C=N/NC(=O)c3ccccc3)cc2)cc1OC`: the EC50 is 27.7 µM (active) in [11] and 25.8 µM (active) in assay [12].

The values above are taken from ChEMBL document CHEMBL1201862, “PubChem BioAssay data set” (2004).
